Data taken from patent US8748448B2, “Combination analgesic employing opioid agonist and neutral antagonist” (AIKO Biotechnology, priority 2007, dated 2014).
Where “and” joins values, the source holds several entries; their conditions need not be identical. Equal values may be shown once. Entries after “also recorded” stand apart in the source; their conditions may differ.

Key:
[1] = system: hydrocodone-induced antinociception; test: 55° C. warm-water tail-flick assay: inhibition of hydrocodone-induced antinociception; assay type: in vivo, mice; details: for time of peak effect of antinociception inhibition: hydrocodone 3.2 mg/kg i.v.
[2] = system: hydrocodone effects: GI transit (peripheral) vs. antinociception (central); test: Peripheral vs. central potency, (antinociception ID50)/(GI transit ID50); assay type: in vivo, mice
[3] = system: morphine-induced slowing of gastrointestinal transit; test: Oral-cecal transit time (lactulose-hydrogen breath test) with 10 mg morphine i.v.; assay type: in vivo, human
[4] = system: morphine-induced analgesia; test: Cold pressor test with 10 mg morphine i.v.; assay type: in vivo, human; details: doses up to 20 mg i.v.
[5] = system: morphine-induced pupil constriction; test: Pupillometry with 10 mg morphine i.v.; assay type: in vivo, human; details: doses up to 20 mg i.v.
[6] = system: gastrointestinal activity in methadone-dependent subjects; test: Methadone maintenance subjects: laxation and oral-cecal transit time; assay type: in vivo, human
From the text: The aims of this first-in-human study were to examine the pharmacokinetics of 6β-naltrexol to measure two key characteristics of 6β-naltrexol in highly opioid dependent persons: unwanted aspects of opioid antagonism such as withdrawal, and preferential suppression of opioid effects on the gastrointestinal tract compared to the central nervous system. Eight subjects were enrolled. Of these subjects, four were ineligible for dosing with 6β-naltrexol: three due to small bowel bacterial overgrowth and one due to difficulty with IV catheter insertion. […] The remaining two subjects tolerated the 1.0 mg dose and reported a willingness to take higher doses of 6β-naltrexol.
Laxation was experienced for one subject (25%; 101 minutes post dose) at the 0.05 mg dose, three subjects (75%; 2, 17, and 40 minutes post dose) at the 0.5 mg dose, and two subjects (67%; both at 5 minutes post dose) at the 1.0 mg dose. […] In the two subjects who did undergo oral-cecal transit time testing (lactulose/H2 test), 6β-naltrexol accelerated GI transit time at doses of 0.25 mg and above. A quantitative evaluation of this test was not possible because of insufficient number of subjects (data from only two subjects were evaluable, while a third subject had elevated base-line H2 levels, and a fourth subject was not tested), but a detectable reversal of GI slowing at 0.25 mf 6β-naltrexol is consistent with the finding that regulator bowel movement occurred with two subjects at 0.5 mg 6β-naltrexol.

[7] = system: morphine-induced antinociception; details: cited from earlier work
[8] = system: stereotypic circling induced by morphine; details: non-dependent and chronically dependent mice; cited from earlier work
[9] = Neutral antagonist comparison (Table 3)
[10] = Oral bioavailability of the neutral antagonists
[11] = Tolerability of i.v. 6β-naltrexol infusion in opioid-naïve volunteers; details: i.v. infusion over 30 minutes, up to 20 mg
[12] = Concentrations in plasma and brain tissue after i.p. injection (LC/MS/MS); details: for plasma concentration as metabolite after the naltrexone dose: after naltrexone 1 mg/kg i.p.
[13] = 6β-naltrexol plasma pharmacokinetics after i.v. infusion, opioid-naïve volunteers (eIND); details: humans
[14] = system: opioid withdrawal in methadone-dependent subjects; test: Double-blind ascending dose study in methadone maintenance subjects: withdrawal scales, VAS, vital signs, pupillometry, tolerability; details: for tolerability: b346: at all but the highest dose (1.0 mg)
[15] = 1 mg/kg i.p., 60 min after injection
[16] = 10 mg/kg i.p., 10 min after injection
[17] = 10 mg/kg i.p., 60 min after injection

## 6β-naltrexol
[1]; antagonist i.v. pretreatment, hydrocodone A90 3.2 mg/kg i.v.
  Antinociception ID50: 0.222 mg/kg
[1]; antagonist p.o. co-administered with hydrocodone A90 32 mg/kg p.o.
  Antinociception ID50: 12.3 mg/kg
[1]; antagonist p.o. pretreatment, hydrocodone A90 3.2 mg/kg i.v.
  Antinociception ID50: 2.35 mg/kg
[1]; i.v. administration
  time of peak effect of antinociception inhibition: 90 min
[1]; p.o. administration
  time of peak effect of antinociception inhibition: 120 min
[2]; antagonist p.o./hydrocodone p.o. co-administered
  Fold-Shift (antinociception ID50)/(GI transit ID50): 9.53 and 9.5
[2]; mice, oral administration, earlier experiments
  selectivity in blocking peripheral over central opioid effects: approximately tenfold
[2]; mouse, orally co-administered with hydrocodone
  therapeutic window (peripheral side effects reduced without inhibition of analgesia): 0.1 to 3.0 mg/kg
[2]; over all administration routes
  fold more potent peripherally than centrally: 5-10 fold
[3]; 20 mg i.v., 10 mg morphine i.v.
  effect of 20 mg on morphine's GI effects: completely blocking; also recorded: completely suppressing
[3]; humans
  peripheral over central potency: at least tenfold
[4]
  effect on morphine-induced analgesia: no detectable effect
[5]
  effect on morphine-induced pupil constriction: no detectable effect
[6]; 0.05 mg dose
  subjects experiencing laxation: 25%
  time of laxation post dose: 101 min
[6]; 0.5 mg dose
  subjects experiencing laxation: 75%
[6]; 0.5 mg i.v.
  effect on bowel movement: near normal bowel movement; also recorded: immediate bowel movement
[6]; 1.0 mg dose
  subjects experiencing laxation: 67%
[6]; 1.0 mg dose, both subjects
  time of laxation post dose: 5 min
[6]; individual patients
  Lowest dose producing laxation: 0.5 mg (2×) and 0.05 mg
[6]; iv, methadone maintenance patients
  dose sufficient initially to cause laxation: 0.5 mg
[6]; two evaluable subjects
  doses accelerating GI transit time (lactulose/H2 test): ≥ 0.25 mg
[7]; administered intraperitoneally, Wang et al. 2001
  effect on morphine-induced antinociception: reverses
[7]; published observation, depending on route of administration
  potency for reversing morphine-induced antinociception, less potent than naltrexone: 5-10 fold
[8]
  effect on stereotypic circling induced by morphine: prevents
[9]
  Half-life of active metabolites: 12 h
[9]; given orally
  Bioavailability for CNS (central) effects: ~25%
[9]; given orally, opioid agonist naïve or non-dependent subject
  Strength (as compared to 6β-naltrexol): 1
[10]; humans, estimated
  oral bioavailability (into the circulation), estimated: approximately 25%
[10]; rodent, previously determined data not shown
  bioavailability: 14%
[10]; species not stated
  oral bioavailability: ~20%
[11]
  tolerability: well tolerated
[12]; 1 mg/kg i.p., 10 min after injection
  Brain concentration: 7 ± 6 ng/g
[12]; 1 mg/kg i.p., 10 min after injection, mean±SD, n=3
  Plasma concentration: 61 ± 7 ng/mL
[12]; [15]
  Brain concentration: 9 ± 1 ng/g
  Plasma concentration: 24 ± 28 ng/mL
[12]; [16]
  Brain concentration: 89 ± 6 ng/g
  Plasma concentration: 857 ± 122 ng/mL
[12]; [17]
  Brain concentration: 74 ± 14 ng/g
  Plasma concentration: 75 ± 25 ng/mL
[12]; after i.p. injection
  change of levels at 60 min from those measured at 10 min: had not changed
[12]; 10 min
  plasma concentration as metabolite after the naltrexone dose: 1.9 ng/mL
[12]; 60 min
  plasma concentration as metabolite after the naltrexone dose: 1.7 ng/mL
[12]; plasma and brain tissue, method sensitive to approximately 1 ng/mL (g)
  detectability as metabolite after the naltrexone dose: detectable in plasma but not brain tissue
[13]
  blood half-life relative to most commonly used oral opioid analgesic formulations: 3-4 times
[13]; i.v. infusion 3 mg or 10 mg
  mean terminal plasma elimination half-life: 11.1 ± 2.4 h
[14]; 0.5 mg i.v., methadone-dependent subjects
  withdrawal symptoms: minimal peripheral withdrawal and no detectable CNS withdrawal
[14]; 1 mg i.v.
  subjects tolerating the dose rather well: 3 of 4
[14]; 0.05-1.0 mg
  overall withdrawal (VAS, SOWS, OOWS, vital signs): minimal
  tolerability: well tolerated
[14]; 0.05-1.0 mg, listed as 6β-Naltrexol
  tolerability: generally well tolerated
[14]; dose 0.05 mg
  Diastolic BP, peak value: 83.0 ± 5.9 mmHg
  Heart Rate, peak value: 61.8 ± 6.2 bpm
  SOWS (total), peak value: 0.8 ± 1.0
  Systolic blood pressure (BP), peak value: 121.3 ± 7.0 mmHg
  VAS Any Drug Effect, peak value: 0.5 ± 1.0
  VAS Bad Drug Effect, peak value: 0.8 ± 1.5
  VAS Good Drug Effect, peak value: 0.3 ± 0.5
  VAS Opioid Withdrawal, peak value: 1.3 ± 2.5
  VAS Sickness, peak value: 0.50 ± 1.00
[14]; dose 0.05 mg, mean ± standard deviation
  OOWS (total), peak value: 0.8 ± 0.5
[14]; dose 0.15 mg
  Diastolic BP, peak value: 76.5 ± 5.1 mmHg
  Heart Rate, peak value: 59.5 ± 2.9 bpm
  OOWS (total), peak value: 1.5 ± 0.6
  SOWS (total), peak value: 1.3 ± 1.9
  Systolic blood pressure (BP), peak value: 118.5 ± 10.0 mmHg
  VAS Any Drug Effect, peak value: 1.5 ± 1.7
  VAS Bad Drug Effect, peak value: 17.9 ± 32.5
  VAS Good Drug Effect, peak value: 2.2 ± 2.8
  VAS Opioid Withdrawal, peak value: 1.4 ± 1.3
  VAS Sickness, peak value: 9.3 ± 17.2
[14]; dose 0.5 mg
  Diastolic BP, peak value: 80.3 ± 5.7 mmHg
  Heart Rate, peak value: 61.8 ± 5.7 bpm
  OOWS (total), peak value: 3.5 ± 1.3
  SOWS (total), peak value: 4.3 ± 2.2
  Systolic blood pressure (BP), peak value: 118.8 ± 7.6 mmHg
  VAS Any Drug Effect, peak value: 34.3 ± 15.7
  VAS Bad Drug Effect, peak value: 42.5 ± 23.7
  VAS Good Drug Effect, peak value: 6.5 ± 12.3
  VAS Opioid Withdrawal, peak value: 21.0 ± 29.7
  VAS Sickness, peak value: 15.8 ± 18.1
[14]; dose 1.0 mg
  Diastolic BP, peak value: 88.3 ± 12.7 mmHg
  Heart Rate, peak value: 71.7 ± 4.9 bpm
  OOWS (total), peak value: 5.3 ± 4.0
  SOWS (total), peak value: 4.3 ± 2.8
  Systolic blood pressure (BP), peak value: 134.7 ± 26.4 mmHg
  VAS Any Drug Effect, peak value: 24.0 ± 21.7
  VAS Bad Drug Effect, peak value: 26.9 ± 33.0
  VAS Good Drug Effect, peak value: 1.0 ± 0.0
  VAS Opioid Withdrawal, peak value: 13.1 ± 8.1
  VAS Sickness, peak value: 9.0 ± 5.6
[14]; individual patients
  Would continue after highest dose: No and Yes (3×)
[14]; up to 1 mg
  pupillometry measures (a CNS effect): unaffected
